Reference: US8415379B2, “Pyridines” (Hoffmann-La Roche Inc., priority 2009, dated 2013)

Target: T1, GABA A α5 (human receptors of composition α5β3γ2) (Homo sapiens, UniProt P18507+P31644)
T1 construct: expressed in transfected cells; host or cells: HEK293 cells, transiently transfected; membrane homogenates used
Assay: [3H]flumazenil competition binding assay, human GABA A α5β3γ2 receptors in HEK293 cells
Conditions: displacement of 0.5 nM [3H]flumazenil, HEK293 membranes, 1 hour at 4° C., means of two determinations, read-out: hKi GABA A α5
Experimental: The affinity of compounds at GABA A receptor subtypes was measured by competition for [^3H]flumazenil (85 Ci/mmol; Roche) binding to HEK293 cells expressing rat (stably transfected) or human (transiently transfected) receptors of composition α1β3γ2, α2β3γ2, α3β3γ2 and α5β3γ2.
Cell pellets were suspended in Krebs-tris buffer (4.8 mM KCl, 1.2 mM CaCl2, 1.2 mM MgCl2, 120 mM NaCl, 15 mM Tris; pH 7.5; binding assay buffer), homogenized by polytron for ca. 20 sec on ice and centrifuged for 60 min at 4° C. (50000 g; Sorvall, rotor: SM24=20000 rpm). The cell pellets were re-suspended in Krebs-tris buffer and homogenized by polytron for ca. 15 sec on ice. Protein was measured (Bradford method, Bio-Rad) and aliquots of 1 mL were prepared and stored at −80° C.
Radioligand binding assays were carried out in a volume of […] (96-well plates) which contained […] of cell membranes, [^3H]flumazenil at a concentration of 1 nM for α1, α2 and α3 subunits and 0.5 nM for α5 subunits and the test compound in the range of […]. Nonspecific binding was defined by 10^−5 M diazepam and typically represented less than 5% of the total binding. Assays were incubated to equilibrium for 1 hour at 4° C. and harvested onto GF/C uni-filters (Packard) by filtration using a Packard harvester and washing with ice-cold wash buffer (50 mM Tris; pH 7.5). After drying, filter-retained radioactivity was detected by liquid scintillation counting. Ki values were calculated using Excel-Fit (Microsoft) and are the means of two determinations.

Ki [nM]	Compound
13.9	Cc1onc(-c2ccccc2)c1COc1ccc(C(=O)NC2CCOC2)nc1 (racemic) [Example 3, Rac-5-(5-Methyl-3-phenyl-isoxazol-4-ylmethoxy)-pyridine-2-carboxylic acid (tetrahydro-furan-3-yl)-amide]
8.1	CCC(CO)NC(=O)c1ccc(OCc2c(-c3ccccn3)noc2C)cn1 (racemic) [Example 20, Rac-5-(5-Methyl-3-pyridin-2-yl-isoxazol-4-ylmethoxy)-pyridine-2-carboxylic acid (1-hydroxymethyl-propyl)-amide]
15.4	Cc1onc(-c2ccccc2)c1COc1ccc(C(=O)NCCO)nc1 [Example 1, 5-(5-Methyl-3-phenyl-isoxazol-4-ylmethoxy)-pyridine-2-carboxylic acid (2-hydroxy-ethyl)-amide]
8.9	Cc1onc(-c2ccccc2)c1COc1ccc(C(=O)NC(C)C)nc1 [Example 2, 5-(5-Methyl-3-phenyl-isoxazol-4-ylmethoxy)-pyridine-2-carboxylic acid isopropylamide]
26.5	Cc1onc(-c2ccccc2)c1COc1ccc(C(=O)NN(C)C)nc1 [Example 4, 5-(5-Methyl-3-phenyl-isoxazol-4-ylmethoxy)-pyridine-2-carboxylic acid N′,N′-dimethyl-hydrazide]
17	Cc1onc(-c2ccccc2)c1COc1ccc(C(=O)NN2CCOCC2)nc1 [Example 5, 5-(5-Methyl-3-phenyl-isoxazol-4-ylmethoxy)-pyridine-2-carboxylic acid morpholin-4-ylamide]
3.2	Cc1onc(-c2ccccn2)c1COc1ccc(C(=O)NC(C)C)nc1 [Example 7, 5-(5-Methyl-3-pyridin-2-yl-isoxazol-4-ylmethoxy)-pyridine-2-carboxylic acid isopropyl-amide]
22.3	Cc1onc(-c2ccccn2)c1COc1ccc(C(=O)NC(C)(C)CO)nc1 [Example 8, 5-(5-Methyl-3-pyridin-2-yl-isoxazol-4-ylmethoxy)-pyridine-2-carboxylic acid (2-hydroxy-1,1-dimethyl-ethyl)-amide]
3.5	Cc1onc(-c2ccccn2)c1COc1ccc(C(=O)NC2CC2)nc1 [Example 11, 5-(5-Methyl-3-pyridin-2-yl-isoxazol-4-ylmethoxy)-pyridine-2-carboxylic acid cyclopropyl amide]
7.1	Cc1onc(-c2ccccn2)c1COc1ccc(C(=O)NCC2CC2)nc1 [Example 12, 5-(5-Methyl-3-pyridin-2-yl-isoxazol-4-ylmethoxy)-pyridine-2-carboxylic acid cyclopropyl-methyl-amide]
7.8	Cc1onc(-c2ccccn2)c1COc1ccc(C(=O)NCCO)nc1 [Example 14, 5-(5-Methyl-3-pyridin-2-yl-isoxazol-4-ylmethoxy)-pyridine-2-carboxylic acid (2-hydroxy-ethyl)-amide]
5.8	CCNC(=O)c1ccc(OCc2c(-c3ccccn3)noc2C)cn1 [Example 15, 5-(5-Methyl-3-pyridin-2-yl-isoxazol-4-ylmethoxy)-pyridine-2-carboxylic acid ethylamide]
7.1	CNC(=O)c1ccc(OCc2c(-c3ccccn3)noc2C)cn1 [Example 16, 5-(5-Methyl-3-pyridin-2-yl-isoxazol-4-ylmethoxy)-pyridine-2-carboxylic acid methylamide]
1.7	Cc1onc(-c2ccccn2)c1COc1ccc(C(=O)Nc2cnn(C)c2)nc1 [Example 19, 5-(5-Methyl-3-pyridin-2-yl-isoxazol-4-ylmethoxy)-pyridine-2-carboxylic acid (1-methyl-1H-pyrazol-4-yl)-amide]
4.3	CC[C@@H](CO)NC(=O)c1ccc(OCc2c(-c3ccccn3)noc2C)cn1 [Example 21, 5-(5-Methyl-3-pyridin-2-yl-isoxazol-4-ylmethoxy)-pyridine-2-carboxylic acid ((S)-1-hydroxymethyl-propyl)-amide]
5.6	Cc1onc(-c2ccccn2)c1COc1ccc(C(=O)N[C@@H](C)C(F)(F)F)nc1 [Example 22, 5-(5-Methyl-3-pyridin-2-yl-isoxazol-4-ylmethoxy)-pyridine-2-carboxylic acid ((S)-2,2,2-trifluoro-1-methyl-ethyl)-amide]
3.3	Cc1onc(-c2ccc(F)cn2)c1COc1ccc(C(=O)NC(C)C)nc1 [Example 23, 5-[3-(5-Fluoro-pyridin-2-yl)-5-methyl-isoxazol-4-ylmethoxy]-pyridine-2-carboxylic acid isopropylamide]
70.2	CC(C)NC(=O)c1ccc(OCc2c(-c3ccc(F)cc3)noc2CO)cn1 [Example 29, 5-[3-(4-Fluoro-phenyl)-5-hydroxymethyl-isoxazol-4-ylmethoxy]-pyridine-2-carboxylic acid isopropylamide]

The remaining lines, values behind:

Compound	Ki [nM]
Cc1onc(-c2ccccn2)c1COc1ccc(C(=O)NC2CCOCC2)nc1 [Example 6, 5-(5-Methyl-3-pyridin-2-yl-isoxazol-4-ylmethoxy)-pyridine-2-carboxylic acid (tetrahydro-pyran-4-yl)-amide]	4.8
Cc1onc(-c2ccccn2)c1COc1ccc(C(=O)NN2CCOCC2)nc1 [Example 9, 5-(5-Methyl-3-pyridin-2-yl-isoxazol-4-ylmethoxy)-pyridine-2-carboxylic acid morpholin-4-ylamide]	4.4
Cc1onc(-c2ccccn2)c1COc1ccc(C(=O)N2CCS(=O)(=O)CC2)nc1 [Example 10, (1,1-Dioxo-1,6-thiomorpholin-4-yl)-[5-(5-methyl-3-pyridin-2-yl-isoxazol-4-ylmethoxy)-pyridin-2-yl]-methanone]	34.2
Cc1onc(-c2ccccn2)c1COc1ccc(C(=O)NCC(F)(F)F)nc1 [Example 13, 5-(5-Methyl-3-pyridin-2-yl-isoxazol-4-ylmethoxy)-pyridine-2-carboxylic acid (2,2,2-trifluoro-ethyl)-amide]	4.6
Cc1onc(-c2ccccn2)c1COc1ccc(C(=O)N2CCSCC2)nc1 [Example 17, [5-(5-Methyl-3-pyridin-2-yl-isoxazol-4-ylmethoxy)-pyridin-2-yl]-thiomorpholin-4-yl-methanone]	32.9
Cc1onc(-c2ccccn2)c1COc1ccc(C(=O)N[C@H]2CCC[C@@H]2O)nc1 [Example 18, 5-(5-Methyl-3-pyridin-2-yl-isoxazol-4-ylmethoxy)-pyridine-2-carboxylic acid ((1S,2S)-2-hydroxy-cyclopentyl)-amide]	5.6
Cc1onc(-c2ccc(F)cn2)c1COc1ccc(C(=O)NC(C)(C)CO)nc1 [Example 24, 5-[3-(5-Fluoro-pyridin-2-yl)-5-methyl-isoxazol-4-ylmethoxy]-pyridine-2-carboxylic acid (2-hydroxy-1,1-dimethyl-ethyl)-amide]	17.5
Cc1onc(-c2ccc(F)cn2)c1COc1ccc(C(=O)NN2CCOCC2)nc1 [Example 25, 5-[3-(5-Fluoro-pyridin-2-yl)-5-methyl-isoxazol-4-ylmethoxy]-pyridine-2-carboxylic acid morpholin-4-ylamide]	3.9
Cc1onc(-c2ccc(F)cn2)c1COc1ccc(C(=O)N2CCS(=O)(=O)CC2)nc1 [Example 26, (1,1-Dioxo-1,6-thiomorpholin-4-yl)-{5-[3-(5-fluoro-pyridin-2-yl)-5-methyl-isoxazol-4-ylmethoxy]-pyridin-2-yl}-methanone]	36.9
Cc1onc(-c2ccc(F)cn2)c1COc1ccc(C(=O)NC2CC2)nc1 [Example 27, 5-[3-(5-Fluoro-pyridin-2-yl)-5-methyl-isoxazol-4-ylmethoxy]-pyridine-2-carboxylic acid cyclopropylamide]	2.6
Cc1onc(-c2ccc(F)cn2)c1COc1ccc(C(=O)NCC(F)(F)F)nc1 [Example 28, 5-[3-(5-Fluoro-pyridin-2-yl)-5-methyl-isoxazol-4-ylmethoxy]-pyridine-2-carboxylic acid (2,2,2-trifluoro-ethyl)-amide]	4.2
O=C(NC1CCOCC1)c1ccc(OCc2c(-c3ccc(F)cc3)noc2CO)cn1 [Example 30, 5-[3-(4-Fluoro-phenyl)-5-hydroxymethyl-isoxazol-4-ylmethoxy]-pyridine-2-carboxylic acid (tetrahydro-pyran-4-yl)-amide]	30.3
O=C(NC1CC1)c1ccc(OCc2c(-c3ccc(F)cc3)noc2CO)cn1 [Example 31, 5-[3-(4-Fluoro-phenyl)-5-hydroxymethyl-isoxazol-4-ylmethoxy]-pyridine-2-carboxylic acid cyclopropylamide]	23.3
CC(NC(=O)c1ccc(OCc2c(-c3ccc(F)cc3)noc2CO)cn1)C(F)(F)F (stereo not drawn) [Example 32, 5-[3-(4-Fluoro-phenyl)-5-hydroxymethyl-isoxazol-4-ylmethoxy]-pyridine-2-carboxylic acid (2,2,2-trifluoro-1-methyl-ethyl)-amide]	60.4
O=C(NCC(F)(F)F)c1ccc(OCc2c(-c3ccc(F)cc3)noc2CO)cn1 [Example 33, 5-[3-(4-Fluoro-phenyl)-5-hydroxymethyl-isoxazol-4-ylmethoxy]-pyridine-2-carboxylic acid (2,2,2-trifluoro-ethyl)-amide]	10.2
